From patent US10702492B2, “PPARα activator, pharmaceutical composition, food and drink, food additive, supplement and method of manufacturing the same” (Marukome Co., Ltd., priority 2015, dated 2020)
“Also recorded” adds a separate entry of the source.

Key:
human PPARα = molecular target: T1, human PPARα (Homo sapiens, UniProt Q07869); assay: PPARα luciferase assay; format: cell-based; details: CV-1 cells, 1.3 μM, 24 hours after the addition; FIG. 6 and FIG. 7
T1 construct: expressed in transfected cells; host or cells: CV-1 cells
T1 sequence (Q07869 239-466 limits assumed): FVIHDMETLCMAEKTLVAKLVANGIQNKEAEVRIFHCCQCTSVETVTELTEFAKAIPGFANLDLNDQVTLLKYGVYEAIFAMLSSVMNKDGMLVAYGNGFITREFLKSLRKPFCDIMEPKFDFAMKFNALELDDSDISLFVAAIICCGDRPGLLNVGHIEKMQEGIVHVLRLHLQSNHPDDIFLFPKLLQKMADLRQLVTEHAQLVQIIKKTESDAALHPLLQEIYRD
Method: The PPARα activity of koji extract 1 was evaluated by PPARα luciferase assay. The assay was performed by a method as previously described (T. Goto et al., Biochemical and Biophysical Research Communications 337(2005) 440-445).
Specifically, CV-1 cells that were transfected with p4×UASg-tk-luc (reporter plasmid), pM-hPPARα (expression vector for DNA-binding domain of GAL4 and ligand-binding domain of human PPARα for chimeric protein), pRL-CMV (internal control for normalizing transfection efficiency) and Lipofectamine™ Reagent. The cells were cultured in a DMEM culture medium containing 10% FBS and penicillin/streptomycin (10 mg/mL).
The CV-1 cells were transfected with the vector with Lipofectamine and cultured for 24 hours. Then, the medium was replaced with a medium added with 0.1 mg/mL, 0.5 mg/mL or 5 mg/mL of the concentrated koji extract 1 with 70% ethanol (dilution rate: 50 times), respectively, and the CV-1 cells were further cultured for 24 hours. The measurement of luciferase activity was performed by using Dual-Luciferase(R) Reporter Assay System (Promega) and a luminometer (MicroLumat Plus, Berthold Japan Co., Ltd.) according to the protocols of the reagent and the luminometer.
As a positive control, a medium added with […] of a known PPARα agonist, GW-7647 (2-[4-[2-[1-(4-cyclohexylbutyl)-3-cyclohexylureido]ethyl]phenylthio]isobutyric acid) was used. […]

[1] = system: mouse primary-cultured hepatocytes; assay: TG accumulation in mouse primary-cultured hepatocytes (TG kit); format: cell-based; details: 24 hours, 500 μM oleic acid medium, vs. negative control (CT+), FIG. 8
Method: The effect on the accumulation of triglyceride ([…]) of a koji extract was evaluated by using mouse primary-cultured hepatocytes and koji extract 1 used in Example 1.
Primary-cultured hepatocytes were prepared from hepatocytes separated from C57BL/6J mice (6 week old, male), and were seeded in a 12-well plate (2×10^5 cells/ml). After confirming the attachment of the cells to the plate at 3-5 hours after the seeding, the medium was replaced with a serum-free medium (low-glucose DMEM, 1% P/S, 500 μM oleic acid, 20 μg/mL BSA). At this time, koji extract 1 was added in an amount of 0.1 mg/mL or 1 mg/mL. As a positive control, a medium added with GW-7647 ([…]) was used.
At 24 hours after the addition, the amount of TG accumulation of the primary-cultured hepatocytes was measured with a TG kit (Wako). […] The error bar refers to SE (n=4), * is p<0.05, ** is p<0.01 (vs. control).
The effect on triglyceride (TG) accumulation of 9-HODE:10E,12E was evaluated by using mouse primary-cultured hepatocytes.
Primary-cultured hepatocytes were prepared from hepatocytes separated from C57BL/6J mice (6 week old, male), and seeded in a 12-well plate (2×10^5 cells/ml). […]
At 24 hours after the addition, the accumulation amount of TG was measured by using a TG kit (Wako). […]

CCCCC/C=C/C=C/C(O)CCCCCCCC(=O)O (stereo not drawn) [9-HODE:10E,12E, 9-hydroxy-10,12-octadecadienoic acid]
PPARα activity (human PPARα): remarkably high; also recorded: relatively high
accumulation amount of TG ([1]; 3 μM): significant decrease
accumulation amount of TG ([1]; 10 μM): significant decrease
